Literature values as cited in US10194658B2, “High concentration low VOC liquid gibberellin” (Stoller Enterprises, Inc., priority 2015, dated 2019).

Conditions: at 20° C.

CC(O)CO (stereo not shown) [propylene glycol, propane-1,2-diol]
vapor pressure: 0.08 mm Hg
